In brackets after ≈: the same amount, converted by molar mass.

One data set deals with lung NCI-H460. Briefly: human cancer cell line growth inhibition, lung NCI-H460. The following applies: drug dose needed to reduce the percent growth to 50%. It is filed as cell-based. The text has this: (§1) The current cost to develop the necessary data required for lawful marketing of a new drug compound approaches ten million dollars per compound. Economics dictate that such a huge investment be made only when there is a reasonable likelihood that it can be recovered. Absent such a likelihood, there will be no investment and, without investment, the research requisite for the discovery of these potentially life saving compounds will cease. Current research in the control of cancer in the United States is coordinated by the National Cancer Institute (NCI). To determine whether a substance has anti-cancer properties, the NCI has established a systematic protocol. This protocol, which involves the testing of a substance against a standard cell line panel containing 60 human tumor cell lines, has been verified and is accepted in scientific circles. The protocol, and the established statistical means for analyzing the results obtained by the standardized testing are fully described in the literature. […]
(§2) Each drug is tested at five (5) doses: 100-10-1-0.1-0.01 μg/ml. Percent Growths are calculated for each dose. […]

The next data set concerns ovary OVCAR-3. Briefly: human cancer cell line growth inhibition, ovary OVCAR-3. It is filed as cell-based. The following applies: drug dose needed to reduce the percent growth to 50%.
Excerpt: as §1, §2

In data set [1] the test system is human cancer cell lines (brain SF-295, renal A498, colon KM20L2, melanoma SK-MEL-5, lung NCI-H460, ovarian OVCAR-3). Briefly: in vitro activity against minipanel of human cancer cell lines. Type of data set: cell-based. The following applies: portion of minipanel including brain SF-295, renal A498, colon KM20L2 and melanoma SK-MEL-5.
Excerpt: as §1, §2

Another data set has as its system L1210 leukemia cell line. The conditions noted are these: cited from earlier work.
The subject of the next data set is murine melanoma B16. The following applies: cited from earlier work.

In general, GI50 refers to the concentration that inhibits growth by half. A lower GI50 goes with greater sensitivity of the cells. `CCCCCCCCCCCCCCCCCCCCCC[C@@H](O)C(=O)N[C@@H](CO[C@H]1O[C@H](CO)[C@H](O)[C@H](O[C@@H]2O[C@@H]([C@@H](O)CO)[C@H](O)[C@H]2O[C@H]2O[C@@H]([C@@H](O)CO)[C@H](O)[C@H]2O)[C@H]1O)[C@H](O)[C@H](O)CCCCCCCCCCC(C)C` [agelagalastatin]: the GI50 in the data set on lung NCI-H460 turned out to be 0.77 µg/mL (≈ 0.666 µM); in the data set on ovary OVCAR-3 it was 2.8 µg/mL (≈ 2.42 µM). Moreover, the in vitro activity result in data set [1] is “significant in vitro activity”.
For `CN1C(=O)NC2C3NC(=O)c4ccc(Br)n4C3CC21O` (centres unmarked) [agelastatin A], in the data set with L1210 leukemia cell line, the cytotoxic entry was “cytotoxic”.
With `CCCCCCCCCCCCCCCCCCCCCCCCCC(=O)N[C@@H](CO[C@H]1O[C@H](CO)[C@H](O)[C@H](O)[C@H]1O)[C@H](O)[C@H](O)CCCCCCCCCCCCCC` [structural modification (5)], the in vivo active result with murine melanoma B16 is “in vivo active”.

The values are drawn from patent US6281196A, “Isolation and structural elucidation of the human cancer cell growth inhibitory compound denominated agelagalastatin” (Arizona Board of Regents, priority 2000, dated 2001).
